Assay results taken from article PMC9267852, “Hepatic Expression of the Na^+-Taurocholate Cotransporting Polypeptide Is Independent from Genetic Variation” (International Journal of Molecular Sciences, 2022).
Numbering of substitutions follows the chain as printed. pIC50: −log10 of the molar value.

How the values were obtained:
Assay type in all cases: cell-based
[1] = biological target: T1, Na+-taurocholate cotransporting polypeptide (NTCP) (Homo sapiens, UniProt Q14973, S213R); assay: inhibition of [3H]taurocholate uptake in NTCP-S213R-expressing HEK cells; sodium-dependent remdesivir uptake Km […]
T1 construct: gene SLC10A1; NTCP-p.S213R, stably expressed in HEK cells
T1 sequence (Q14973 1-349 S213R): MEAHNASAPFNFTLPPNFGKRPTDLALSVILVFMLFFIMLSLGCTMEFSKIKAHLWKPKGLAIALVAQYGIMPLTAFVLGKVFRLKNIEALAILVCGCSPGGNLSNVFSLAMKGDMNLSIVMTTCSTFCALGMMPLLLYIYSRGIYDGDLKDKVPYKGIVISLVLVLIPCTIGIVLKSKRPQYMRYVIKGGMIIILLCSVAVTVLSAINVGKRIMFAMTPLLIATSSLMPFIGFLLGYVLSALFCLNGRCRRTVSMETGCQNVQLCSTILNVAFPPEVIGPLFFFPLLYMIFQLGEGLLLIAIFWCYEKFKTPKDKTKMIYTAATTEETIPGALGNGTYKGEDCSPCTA

[2] = biological target: T2, Na+-taurocholate cotransporting polypeptide (NTCP) (Homo sapiens, UniProt Q14973); assay: inhibition of [3H]taurocholate uptake in NTCP-expressing HEK cells; remdesivir also taken up sodium-dependently (Km […])
T2 construct: gene SLC10A1
T2 sequence (Q14973 1-349): T1 sequence (Q14973 1-349 S213R) with R213S

[3] = biological target: T3, Na+-taurocholate cotransporting polypeptide (NTCP) (Homo sapiens, UniProt Q14973, R185C); assay: inhibition of [3H]taurocholate uptake in NTCP-R185C-expressing HEK cells; sodium-dependent remdesivir uptake Km […]
T3 construct: gene SLC10A1; NTCP-p.R185C, stably expressed in HEK cells
T3 sequence (Q14973 1-349 R185C): T1 sequence (Q14973 1-349 S213R) with R185C, R213S

CCC(CC)COC(=O)[C@H](C)N[P@](=O)(OC[C@H]1O[C@@](C#N)(c2ccc3c(N)ncnn23)[C@H](O)[C@@H]1O)Oc1ccccc1 [remdesivir]
pIC50 [1]: 4.20
pIC50 [2]: 4.04
pIC50 [3]: 4.19
